According to patent publication US6610681B1, “Neurotherapeutic clavulanate composition and method” (Revaax Pharmaceuticals, LLC, priority 1999, dated 2003):

Key:
male Wistar rats = test: elevated plus-maze; assay type: in vivo, rat
Description: The elevated plus-maze was developed for screening anxiolytic and anxiogenic drug effects in the rat (Pellow et al., 1985). The method has been validated behaviorally, physiologically, and pharmacologically. The plus-maze consists of two open arms and two enclosed arms. […] Conversely, anxiogenic compounds like yohimbin or amphetamines reduce open arm entries and time spent in the open arms.
Male Wistar rats weighing 250-300 g were group housed in a normal 12:12 light-dark cycle with light on at 0800 hr and provided food and water ad libitum. The plus-maze consisted of two open arms, 50 cm long, 10 cm wide, […]. The two closed arms had the same dimensions but included a roof. The Plexiglas for the closed arms was painted black. Each pair of arms was arranged opposite to each other to form the plus-maze. The maze was elevated to a height of 50 cm. Eighteen animals were tested in the plus-maze 90 min following the IP injection of 1.0 μg/kg CLAV, 50 or vehicle control in a volume of ca. 0.3 ml. The order of treatments was counter balanced with at least 48 hrs between injections. At the start of the experiment, the animal was placed at the end of one of the open arms. Over a five min observation period, animals were scored for the latency to enter the closed arm, time spent in the closed arm and the number of open arm entries following the first occupation of the closed arm. The study produced tables of repeated measures. The data between treatments were compared with a two-way, repeated measures ANOVA followed by Bonferroni post hoc tests.
Chlordiazepoxide (Librium®) is a commonly prescribed anxiolytic that has been thoroughly characterized in preclinical studies. The effective anxiolytic dose in the plus-maze is 10-25 mg/kg (Lister 1987; File and Aranko 1988; Shumsky and Lucki 1994). […] However, it was discovered animals develop a tolerance to the motor depression with repeated daily administration of CDP for several days (Shumsky and Lucki 1994). […] While CLAV has no effect on motor activity it was necessary to treat an equal number of rats with daily injections of CLAV (100 ng/kg) to insure a balanced experimental design. In addition there was a third group of rats (n=6) receiving daily injections of saline vehicle. The study reported in Section II tested CLAV at 1 μg/kg in the plus-maze. […] For this reason CLAV was tested at 100 ng/kg in these studies.

[1] = tested on: male Syrian golden hamsters; test: golden hamster seed finding model of anxiety; assay type: in vivo, Mesocricetus auratus
Description: Clavulanic acid (CLAV) is structurally similar to the beta-lactam antibiotics. A most robust and simple bioassay for screening beta-lactams for CNS activity is the golden hamster seed finding model of anxiety. Briefly, hamsters are deprived of food overnight. The following day they are exposed to the additional stress of being taken from their home cage and placed in a novel environment for a few minutes. This manipulation stimulates the release of the stress hormone cortisol (FIG. 13). During their absence from the home cage, sunflower seeds are hidden under the bedding in one of the corners. When returned to the home cage, hamsters routinely scramble along the walls for 1-2 min before settling down, locating and eating the seeds. However, animals treated with the benzodiazepine anxiolytic chlordiazepoxide find seeds in less than 10 sec.
Male, Syrian golden hamsters (Mesocricetus auratus) (120-130 g) obtained from Harlan Sprague-Dawley Laboratories (Indianapolis, Ind.) were housed individually in Plexiglas cages (24 cm×24 cm×20 cm), maintained on a reverse light:dark cycle (14L: 10D; lights on at 19:00 hr) and provided food and water ad libitum. A range of concentrations of CLAV (saline vehicle, 0.1, 1.0, 10, 100 1,000 ng/kg) were tested in six groups of hamsters (4-8/group)(FIG. 1). All tests were conducted during the dark phase of the circadian cycle under dim red illumination. Prior to testing all animals were fasted for 20-24 hrs. Ninety min after intraperitoneal (IP) injection of drug, animals were taken from their home cage and placed into a holding cage for 2 min. During their absence, six sunflower seeds were buried under the bedding in one corner of their home cage. Animals were placed back into their home cage randomly facing any one of the empty corners and timed for their latency to find the seeds in a five min observation period. Latency times were analyzed with a one-way ANOVA followed by Scheffe's post hoc tests. Assumption of equal variances was tested (Hartley's F-max=2.1 p>0.05)
It was hypothesized that CLAV functioned as an anxiolytic in the seed finding assay by blocking NAALADase activity in the brain. If this notion were true then it would be predicted that drugs known to block NAALADase should also enhance seed finding. To this end, animals were treated with N-acetyl-beta-aspartyl-glutamic acid (beta-NAAG), a competitive inhibitor of NAALADase (Serval et al., 1992) and tested in the seed finding model of anxiety. The study was similar to that outlined in Section I with one notable exception. […] Beta-NAAG (FW 304) was given in a dose of 3 ng in a volume of 1 μl saline ICV. The average adult hamster brain weights ca. 1.2 g of which 22% is extracellular fluid. The estimated beta-NAAG concentration was 11 ng/ml or 36 nM.
Two groups of six animals each were fasted overnight as previously described and tested the following day. One group was treated with beta-NAAG and the other saline vehicle and one hr later timed for latency to find the hidden sunflower seeds. A Student t-test for unpaired data was used for statistical comparisons.

[2] = tested on: gram negative beta-lactamase enzymes; conditions: cited from earlier work
[3] = tested on: stress-induced release of cortisol; test: novelty test, stress-induced release of cortisol; assay type: in vivo, hamster; conditions: 10 μg/kg IP
Experimental: The simple procedure of placing an adult male hamster into a novel environment for 5 min causes a significant, predictable increase in blood levels of cortisol (Weinberg and Wong 1986). This novelty test was used to assess the effects of CLAV on stress-induced release of cortisol. Two groups of male hamsters were treated IP with either CLAV (10 μg/kg, n=6), or saline vehicle (n=4). A third group (n=4) received no treatment or isolation stress and served as a control for basal levels of cortisol. Sixty min after treatment animals were taken from their home cage and placed into a novel cage for 5 min. Afterwards animals were sacrificed by decapitation and trunk blood collected for radioimmunoassay of cortisol. All animals were tested under reverse light:dark conditions four hrs into the dark cycle. Data were compared with a one-way ANOVA followed by Fisher PLSD post hoc tests.

rats = test: Morris water maze, cue navigation; assay type: in vivo, rat
Experimental: On the day following the last day (Day 4) of spatial navigation, animals were tested for cue navigation. In these tests, the platform was raised above water level. One hr before testing animals were treated with CLAV or saline vehicle. The same animals treated with CLAV during spatial navigation were treated with CLAV for cue navigation. Animals were run through a series of two min trials with 45 min between trials. At each trial, the platform was moved to a different quadrant. The cue navigation study was identical to the spatial navigation except the platform was visible and the testing was done over five consecutive trials done on a single day. Animals were scored for latency to find the platform, percent time spent in each quadrant, path distance and swim speed for all testing periods.

[4] = 1.0 μg/kg IP, 90 min, vs vehicle
[5] = daily IP 7 days, CLAV 100 ng/kg, CDP 10 mg/kg, vs vehicle

SMILES	anxiolytic action (male Wistar rats; i.p. at 50 micrograms/kg, rats)	change of seed finding time ([1]; dose not given)	inhibition of gram negative beta-lactamase enzymes [2]	effect on stress release of cortisol (summary) [3]	blood level of cortisol vs untreated, non-stressed control ([3]; 60 min, novel cage 5 min)	percentage of time spent in each quadrant vs vehicle (rats; any quadrant on any trial)	latency to find the platform (rats; visible platform, five trials)	distance traveled to find the platform (rats; vs vehicle)	activity in the plus-maze (summary) (male Wistar rats; 1 μg/kg)	latency to enter the dark (closed arm) (male Wistar rats; [4])	open arm entries (male Wistar rats; [4])	time spent in the open arm (male Wistar rats; [4])	open arm entries (male Wistar rats; daily IP 7 days, CLAV 100 ng/kg, CDP 10 mg/kg)	latency to enter the dark closed arms (male Wistar rats; [5])	time spent exposed to light in the open arms (male Wistar rats; [5])	latency to find the sunflower seeds vs vehicle ([1]; 1 ng/kg IP, 90 min)	estimated concentration in extracellular water at the 10 ng/kg dose ([1]; 1.25 ng in 27.5 ml)	effective dose (maximal efficacy) in the seed finding test ([1]; IP)	latency to find the sunflower seeds ([1]; doses of 10 ng and above, IP, 90 min, vehicle 104 sec)	estimated concentration in the brain at the 10 ng/kg dose ([1]; from CSF/plasma ratio 0.25)
CO[C@@]1(NC(=O)C(C(=O)O)c2ccc(O)cc2)C(=O)N2C(C(=O)O)=C(CSc3nnnn3C)CO[C@@H]21 (stereo partly drawn) [Moxalactam, 7-β-[2-carboxy-2-(4-hydroxyphenyl)acetamido]-7α-methoxy-3-[[(1-methyl-1H-tetrazol-5-yl)thio]methyl]-1-oxa-1-dethia-3-cephem-4-carboxylic acid]	acts as an anxiolytic in rats	reduction in seed finding time from minutes to seconds																		
O=C(O)[C@H]1/C(=C/CO)O[C@@H]2CC(=O)N21 [CLAV, clavulanic acid]			15 to 34 nM	no ostensible effect on the release of cortisol	more than twice the blood level of cortisol	no significant difference between treatments	no main effect for treatments	not significantly different	anxiolytic activity	stayed in the starting open light position longer	increased movement into the lighted open arms	significantly increased	no significant difference between treatments	significantly greater	significantly greater	not significantly different from vehicle control	0.045 ng/ml and about 200 pM	0.01 µg/kg	less than 8.0 sec	around 50 pM
